Values quoted from earlier work as cited in US9532941B2, “Method for treatment of hair loss with a combination of natural ingredients” (priority 2011, dated 2017).

Experiments:
human hair = conditions: in vitro exposure; cell proliferation markers
human 5-α-reductase = conditions: cell free assay in vitro

## Cn1c(=O)c2c(ncn2C)n(C)c1=O [caffeine]
Human hair follicles; caffeine 0.001% and 0.005%, 5 mg/ml testosterone
  counteraction of testosterone-induced growth suppression: counteracted
Human hair follicles; caffeine alone
  hair follicle growth, caffeine alone: significant stimulation of hair follicle growth

## C[C@]12CC[C@H]3[C@@H](CCC4=CC(=O)CC[C@@]43C)[C@@H]1CC[C@@H]2O [testosterone]
Human hair follicles; hair follicles treated with 5 mg/ml testosterone
  growth of hair follicles: Significant growth suppression

## epigallocatechin-3-gallate [EGCG]
Human hair
  human hair growth: stimulates human hair growth
Human 5-α-reductase
  inhibition of human 5-α-reductase, cell free: potently inhibited
